The source of these data is patent US20230173135A1, “PROCESS TO COAT A MEDICAL DEVICE SURFACE WITH PEPTIDE-BASED NANOPARTICLES” (priority 2020, published 2023).

Data set [1] relates to E.coli. The class given is cell-based. As to the method:
(§1) Bacterial resistance assay. Commercial available Acticoat® dressing from Smith & Nephew was used to study the development of bacterial resistance against Ag. Acticoat® (1 cm^2 area) was placed in water (1 mL) and kept at room temperature for 24 h in order to promote leaching of Ag ions. ICP-MS analysis of leached solution was done to quantify the amount of Ag ions. The leached Acticoat® solution (Ag^+,0.06 ug/mL; sub-minimum inhibitory concentration, sub-MIC) was used to incubate with E.coli or S.aureus suspensions (10^5 CFU/mL) for 20 h in 10% human serum (HS; v/v in PBS). Then, for antimicrobial test, 10^5 CFU/mL of bacteria from passage 1 were incubated with 0.1 ug/mL (minimum inhibitory concentration, MIC) of Acticoat® solution in 10% human serum (HS) for 6 h followed by serial dilution and plating. Plates were incubated at 37° C. for 24 h. The visible bacteria grown on plates were counted. […]
(§2) Next, the inventors evaluated whether LL37NPs induced bacterial resistance (FIG. 5). […] Acticoat® dressing was incubated in PBS for 1, 3 and 5 days followed by the quantification of silver ions using ICP-MS analysis (FIG. 11C). […]
(§3) (A) Schematic diagram showing experimental procedures being used for bacterial resistance assay. […] ICP-MS analysis was performed to quantify the amount of Ag. […]

Data set [2] relates to S.aureus. The class given is cell-based. As to the method: as §1, §2, §3
Data set [3] deals with P.aeruginosa.
Data set [4] deals with Human keratinocyte cell line (HaCaT). As to the kind of experiment: Biocompatibility: keratinocytes cultured on films, ATP (CellTiter-Glo) assay. The conditions noted are these: 4 and 24 h; cells on films or with soluble peptide (20 µg/mL). It counts as cell-based. The protocol: Cell Culture. Human dermal fibroblast cells (NDHF) (Lonza) were cultured with Dulbecco’s modified eagle’s medium (DMEM) (Sigma) supplemented with 10% (v/v) of fetal bovine serum (Gibco, Grand Island, NY, USA) and 1% (v/v) penicillin/streptomycin (Lonza). NDHF cells under passage number ten were used in all experiments. Human keratinocyte cell line (HaCaT cell line, CLS, Eppelheim, Germany) was cultured as recommended by the vendor. Briefly, HaCaT cells were cultivated using DMEM supplemented with 1% (v/v) penicillin and streptomycin (Invitrogen) and 10% (v/v) fetal bovine serum (FBS, Invitrogen) until 90% of confluence. For passage, HaCat cells were initially trypsinized and then scraped. The cells were sub-cultured at a ratio of 1:3 until achieving the number of cells required for the experiment.
Biocompatibility study. Keratinocytes (2×10^4 cells) were cultured on top of PU-Adhesive-LL37NP, PU-Adhesive or PU films and cultured for 4 and 24 h. […] Cell viability was measured using ATP assay. […]
In vitro cytotoxicity of PU-adhesive-LL37NP films. […] To evaluate the cytotoxicity of films, keratinocytes were cultured on the top of PU-adhesive-LL37NP, PU-adhesive and PU films for 4 and 24 h and then cell viability was evaluated by an ATP assay (FIG. 12A). […]
(Cellular ATP, detected with luciferase, serves as a proxy for viable cell number.)

For the compound `O=C(N[C@H](CO)[C@H](O)c1ccc([N+](=O)[O-])cc1)C(Cl)Cl` [chloramphenicol], the “time to induce resistance” value in data set [1] (serial passages at sub-MIC) and in data set [2] (serial passages at sub-MIC) was no more than 3 days throughout.

Consider `CC[C@H](C)[C@H](NC(=O)[C@H](CCCCN)NC(=O)[C@H](CCC(=O)O)NC(=O)[C@H](CCCCN)NC(=O)[C@H](CO)NC(=O)[C@H](CCCCN)NC(=O)[C@H](CCCNC(=N)N)NC(=O)[C@H](Cc1ccccc1)NC(=O)[C@H](Cc1ccccc1)NC(=O)[C@H](CC(=O)O)NC(=O)CNC(=O)[C@H](CC(C)C)NC(=O)[C@@H](N)CC(C)C)C(=O)NCC(=O)N[C@@H](CCCCN)C(=O)N[C@@H](CCC(=O)O)C(=O)N[C@@H](Cc1ccccc1)C(=O)N[C@@H](CCCCN)C(=O)N[C@@H](CCCNC(=N)N)C(=O)N[C@H](C(=O)N[C@H](C(=O)N[C@@H](CCC(N)=O)C(=O)N[C@@H](CCCNC(=N)N)C(=O)N[C@H](C(=O)N[C@@H](CCCCN)C(=O)N[C@@H](CC(=O)O)C(=O)N[C@@H](Cc1ccccc1)C(=O)N[C@@H](CC(C)C)C(=O)N[C@@H](CCCNC(=N)N)C(=O)N[C@@H](CC(N)=O)C(=O)N[C@@H](CC(C)C)C(=O)N[C@H](C(=O)N1CCC[C@H]1C(=O)N[C@@H](CCCNC(=N)N)C(=O)N[C@H](C(=O)N[C@@H](CCC(=O)O)C(=O)N[C@@H](CO)C(=O)N[C@@H](CS)C(=O)O)[C@@H](C)O)C(C)C)[C@@H](C)CC)C(C)C)[C@@H](C)CC` [LL37 peptide], for which the MIC entry in data set [3], in data set [1] (free peptide) and in data set [2] (free peptide) was “up to 15 µg/mL” throughout. In addition, the “keratinocyte metabolism / cytotoxicity (ATP production)” value in data set [4] is given as “No statistic difference in keratinocyte metabolism”.
